Source: patent publication US7592358B2 (Boehringer Ingelheim International GmbH, priority 2004, dated 2009)

Target: T1, hMCH-1R (Homo sapiens, UniProt Q99705)
T1 construct: expressed in transfected cells; host or cells: CHO/Galpha16 cells
Experiment: MCH-1 receptor binding test
Conditions: ^125I-MCH binding to membranes from CHO/Galpha16 cells stably transfected with human hMCH-1R
Procedure: Membranes from CHO/Galpha16 cells stably transfected with human hMCH-1R are resuspended using a syringe (needle 0.6×25 mm) and diluted in test buffer (50 mM HEPES, 10 mM MgCl2, 2 mM EGTA, pH 7.00; 0.1% bovine serum albumin (protease-free), 0.021% bacitracin, 1 μg/mL aprotinin, 1 μg/mL leupeptin and 1 μM phosphoramidone) to a concentration of 5 to 15 μg/mL. […] After the incubation the reaction is filtered using a cell harvester through 0.5% PEI treated fiberglass filters (GF/B, Unifilter Packard). The membrane-bound radioactivity retained on the filter is then determined after the addition of scintillator substance (Packard Microscint 20) in a measuring device (TopCount of Packard). […] The analysis of the concentration binding curve is carried out on the assumption of one receptor binding site.

T1 sequence (Q99705 whole entry): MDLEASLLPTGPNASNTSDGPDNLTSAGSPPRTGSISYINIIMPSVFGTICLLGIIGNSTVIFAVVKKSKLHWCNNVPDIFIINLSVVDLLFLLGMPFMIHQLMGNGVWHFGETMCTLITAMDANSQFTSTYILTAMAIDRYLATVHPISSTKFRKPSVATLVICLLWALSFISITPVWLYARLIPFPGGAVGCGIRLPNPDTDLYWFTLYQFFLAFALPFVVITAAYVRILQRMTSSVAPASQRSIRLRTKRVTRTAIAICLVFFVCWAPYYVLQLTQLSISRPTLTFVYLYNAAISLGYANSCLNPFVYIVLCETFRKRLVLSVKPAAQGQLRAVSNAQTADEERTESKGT

IC50 [nM] | Compound
6.2 | Cc1cc(C#Cc2ccc(-c3ccc(Cl)cc3)cn2)ccc1OCCN(C1CCCCC1)C1CCCC1 [Example 1.9, (2-{4-[5-(4-chlorophenyl)pyridin-2-ylethynyl]-2-methylphenoxy}ethyl)cyclohexylcyclopentylamine]
31 | CC1(O)CCN(Cc2cc3cc(C#Cc4ccc(-c5ccc(Cl)cc5)cn4)ccc3s2)CC1 [Example 22.3, 1-{5-[5-(4-chlorophenyl)pyridin-2-ylethynyl]benzo[b]thiophen-2-ylmethyl}-4-methylpiperidin-4-ol]
